# Measured values as given in ChEMBL document CHEMBL1201862, “PubChem BioAssay data set” (2004).
# Activity calls are given as the source filed them.
# Columns and labels:
# [1] = target: T1, Voltage-gated N-type calcium channel alpha-1B subunit/Amyloid beta A4 precursor protein-binding family A member 1 (Homo sapiens, UniProt Q00975+Q02410); assay: disruptors of Mint-PDZ/N-type channel peptide interaction – biochemical, HTRF, set 2, SAR follow-up (AID 434980); format: functional
# [2] = target: T1, Voltage-gated N-type calcium channel alpha-1B subunit/Amyloid beta A4 precursor protein-binding family A member 1; assay: disruptors of Mint-PDZ/N-type channel peptide interaction – biochemical, HTRF, SAR follow-up (AID 2489); format: functional
# [3] = target: T2, Histone-lysine N-methyltransferase NSD2 (Homo sapiens, UniProt O96028); format: biochemical
# T2 sequence (O96028 whole entry): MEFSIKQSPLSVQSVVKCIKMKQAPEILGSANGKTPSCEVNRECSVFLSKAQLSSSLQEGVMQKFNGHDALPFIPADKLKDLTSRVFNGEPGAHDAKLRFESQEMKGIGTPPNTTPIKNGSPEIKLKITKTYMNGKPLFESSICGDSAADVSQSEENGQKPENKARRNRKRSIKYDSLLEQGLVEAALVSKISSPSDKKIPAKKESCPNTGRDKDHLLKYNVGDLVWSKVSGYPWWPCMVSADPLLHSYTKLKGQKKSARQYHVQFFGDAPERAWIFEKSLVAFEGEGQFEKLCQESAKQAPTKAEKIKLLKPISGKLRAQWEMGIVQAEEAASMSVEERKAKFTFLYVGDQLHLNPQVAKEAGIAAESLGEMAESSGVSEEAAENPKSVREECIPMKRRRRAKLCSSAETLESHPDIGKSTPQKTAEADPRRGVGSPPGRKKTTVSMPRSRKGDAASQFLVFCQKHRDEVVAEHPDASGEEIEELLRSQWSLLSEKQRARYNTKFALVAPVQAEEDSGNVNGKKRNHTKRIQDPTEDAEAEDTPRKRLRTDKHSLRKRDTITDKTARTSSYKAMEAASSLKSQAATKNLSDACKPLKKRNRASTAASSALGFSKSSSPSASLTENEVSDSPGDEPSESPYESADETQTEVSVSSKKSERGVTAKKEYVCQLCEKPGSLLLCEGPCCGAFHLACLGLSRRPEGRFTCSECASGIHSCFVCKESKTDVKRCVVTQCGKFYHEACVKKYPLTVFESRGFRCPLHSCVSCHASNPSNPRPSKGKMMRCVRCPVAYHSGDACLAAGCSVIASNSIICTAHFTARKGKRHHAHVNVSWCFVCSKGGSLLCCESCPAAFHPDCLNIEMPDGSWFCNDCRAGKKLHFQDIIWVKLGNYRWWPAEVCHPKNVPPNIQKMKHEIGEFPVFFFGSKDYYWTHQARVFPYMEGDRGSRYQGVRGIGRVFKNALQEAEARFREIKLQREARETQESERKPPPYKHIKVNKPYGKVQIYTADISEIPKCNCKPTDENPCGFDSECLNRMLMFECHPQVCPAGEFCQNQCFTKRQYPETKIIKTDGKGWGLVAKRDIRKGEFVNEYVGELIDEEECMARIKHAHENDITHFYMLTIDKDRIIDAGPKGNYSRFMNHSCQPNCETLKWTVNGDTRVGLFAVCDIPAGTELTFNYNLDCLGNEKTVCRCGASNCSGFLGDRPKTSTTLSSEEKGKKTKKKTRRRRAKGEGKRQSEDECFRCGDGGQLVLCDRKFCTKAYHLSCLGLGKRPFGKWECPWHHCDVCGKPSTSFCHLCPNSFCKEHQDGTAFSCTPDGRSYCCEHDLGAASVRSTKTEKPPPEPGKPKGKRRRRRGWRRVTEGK
# [4] = target: Eukaryotic translation initiation factor 4E (Mus musculus, UniProt P63073); assay: eIF4E–eIF4G protein interaction inhibitors, dose response, biochemical, TR-FRET (AID 855); format: functional;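 further: potency for disrupting eIF4E binding to eIF4GI seen as loss of FRET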
# [5] = target: Tyrosine-protein phosphatase non-receptor type 11 (Homo sapiens, UniProt Q06124); assay: SHP2 phosphatase inhibition, dose response, selectivity assay for STEP inhibitor project, biochemical (AID 602367); format: functional; conditions: read-out: IC50_Mean
# [6] = target: T3, DNA repair protein RAD52 homolog (Homo sapiens, UniProt P43351); format: functional, biochemical
# T3 sequence (P43351 whole entry): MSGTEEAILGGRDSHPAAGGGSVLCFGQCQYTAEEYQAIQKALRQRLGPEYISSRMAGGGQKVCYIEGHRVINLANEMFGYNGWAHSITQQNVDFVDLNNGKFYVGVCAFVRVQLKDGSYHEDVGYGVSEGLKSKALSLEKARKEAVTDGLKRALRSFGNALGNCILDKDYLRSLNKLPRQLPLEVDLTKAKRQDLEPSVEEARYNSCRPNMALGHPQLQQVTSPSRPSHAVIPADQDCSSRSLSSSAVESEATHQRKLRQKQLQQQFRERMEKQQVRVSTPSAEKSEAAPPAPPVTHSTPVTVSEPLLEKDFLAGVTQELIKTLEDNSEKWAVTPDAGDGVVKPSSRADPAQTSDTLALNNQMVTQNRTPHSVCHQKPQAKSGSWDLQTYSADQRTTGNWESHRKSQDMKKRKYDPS
# [7] = target: Dual specificity protein phosphatase 3 (Homo sapiens, UniProt P51452); assay: VHR phosphatase inhibition, dose response, selectivity assay for STEP inhibitor project, biochemical (AID 602374); format: functional; conditions: read-out: IC50_Mean
# Hexokinase HKDC1 = target: T4, Hexokinase HKDC1 (Homo sapiens, UniProt Q2TB90); assay: HKDC1 hexokinase inhibitors, dose response, biochemical, W721R variant (AID 504729); format: functional
# T4 sequence (Q2TB90 whole entry): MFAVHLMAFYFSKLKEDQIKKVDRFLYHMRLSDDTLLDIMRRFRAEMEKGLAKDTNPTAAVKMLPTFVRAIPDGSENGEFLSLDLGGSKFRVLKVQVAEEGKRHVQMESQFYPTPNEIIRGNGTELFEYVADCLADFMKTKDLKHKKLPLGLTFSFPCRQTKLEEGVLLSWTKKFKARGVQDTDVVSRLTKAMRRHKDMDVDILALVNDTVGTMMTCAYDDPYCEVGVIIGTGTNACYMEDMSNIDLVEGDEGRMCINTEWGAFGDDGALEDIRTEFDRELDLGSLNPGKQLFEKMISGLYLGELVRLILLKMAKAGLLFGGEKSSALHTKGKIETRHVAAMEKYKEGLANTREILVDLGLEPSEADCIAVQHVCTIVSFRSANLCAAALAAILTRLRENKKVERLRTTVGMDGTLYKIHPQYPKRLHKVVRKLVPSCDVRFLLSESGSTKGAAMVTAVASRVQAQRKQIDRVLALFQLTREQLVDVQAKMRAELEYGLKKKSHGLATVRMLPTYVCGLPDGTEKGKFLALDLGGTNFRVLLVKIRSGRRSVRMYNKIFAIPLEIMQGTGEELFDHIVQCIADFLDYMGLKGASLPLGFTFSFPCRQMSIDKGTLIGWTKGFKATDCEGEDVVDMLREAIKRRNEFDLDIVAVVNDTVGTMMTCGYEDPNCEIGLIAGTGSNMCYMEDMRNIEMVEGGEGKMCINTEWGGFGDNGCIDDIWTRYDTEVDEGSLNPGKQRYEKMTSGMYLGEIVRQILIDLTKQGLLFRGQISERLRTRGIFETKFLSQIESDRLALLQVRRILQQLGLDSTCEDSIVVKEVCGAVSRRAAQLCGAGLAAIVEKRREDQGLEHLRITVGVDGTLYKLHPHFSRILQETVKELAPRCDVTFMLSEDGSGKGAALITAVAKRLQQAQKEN
# [8] = target: Tyrosine-protein phosphatase non-receptor type 5 (Homo sapiens, UniProt P54829); assay: STEP phosphatase inhibitors, confirmation, biochemical, fluorescence intensity, uHTS hits (AID 602372); format: functional; conditions: read-out: IC50_Mean
# [9] = target: Nucleotide-binding oligomerization domain-containing protein 1 (Homo sapiens, UniProt Q9Y239); assay: NOD1 signaling inhibitors, SAR follow-up, revised (AID 2333); format: functional
# [10] = target: Luciferin 4-monooxygenase (Photinus pyralis, UniProt P08659); assay: firefly luciferase enzyme inhibitors, dose response, biochemical, luminescence (AID 1891)
# Tumor necrosis factor = Tumor necrosis factor (Homo sapiens, UniProt P01375); assay: TNFa-triggered NF-kB activation inhibitors, SAR follow-up, cell-based, revised (AID 2337); format: functional
# [11] = target: T5, Heat shock factor protein 1 (Mus musculus, UniProt P38532); assay: inhibition of MG132-induced HSE-luciferase signal, confirmation, cell-based, NIH3T3, luminescence, dose retest (AID 2382); format: functional;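 further: NIH3T3 fibroblasts with HSF1-driven luciferase reporter stressed by proteasome inhibitor MG132; luminescence from HSF1-driven luciferase expression after 8 hours of MG132 stress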
# T5 sequence (P38532 whole entry): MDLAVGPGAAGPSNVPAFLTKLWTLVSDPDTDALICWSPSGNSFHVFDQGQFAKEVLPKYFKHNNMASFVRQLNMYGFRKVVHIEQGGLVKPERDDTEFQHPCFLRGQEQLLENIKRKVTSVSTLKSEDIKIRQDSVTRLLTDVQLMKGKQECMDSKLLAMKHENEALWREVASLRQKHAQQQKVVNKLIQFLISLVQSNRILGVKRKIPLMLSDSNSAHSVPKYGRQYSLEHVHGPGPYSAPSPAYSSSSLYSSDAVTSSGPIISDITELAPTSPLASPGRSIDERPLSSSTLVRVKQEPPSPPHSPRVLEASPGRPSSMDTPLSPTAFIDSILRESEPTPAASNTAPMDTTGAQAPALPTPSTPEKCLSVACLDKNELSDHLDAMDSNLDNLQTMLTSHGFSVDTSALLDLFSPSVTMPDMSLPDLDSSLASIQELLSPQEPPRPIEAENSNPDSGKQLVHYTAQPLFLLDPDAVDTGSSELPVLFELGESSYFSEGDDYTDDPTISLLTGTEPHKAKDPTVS
# [12] = NIH-3T3 fibroblast cytotoxicity, dose response, cytotoxicity control, cell-based, fluorescence, Alamar Blue, secondary assay (AID 2327); format: functional;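 further: NIH-3T3 mouse fibroblasts cultured with fluconazole at 8 µg/mL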
# [13] = inhibitors of intracellular T. cruzi replication, confirmation, NIH3T3 host cells, beta-gal luminescence (AID 2044); format: functional, cell-based;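 further: intracellular parasites grown in NIH/3T3 mouse fibroblasts as host cells; luminescent beta-galactosidase reporter signal from transgenic T. cruzi replicating inside host cells; inhibitors lower the luminescence signal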
# [14] = inhibitors of SNCA 5'UTR-driven reporter translation, confirmation, H4 neuroglioma cells, luminescence (AID 1988); format: functional, cell-based
# [15] = cytotoxicity toward NIH3T3 fibroblasts, dose response, counter-screen, cell-based, ATP luminescence, mouse fibroblasts (AID 2010); format: functional;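 further: cells exposed to compound for about 90 hours before reading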
# [16] = cytotoxicity in HEK-293T cells, dose response, cytotoxicity control for TCR NF-kB inhibitor project, luminescence, T-cell screen hits (AID 489026); format: functional, cell-based;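 further: cells exposed to compound about 14 hours before the viability readout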
# [17] = target: T6, Calpain-2 catalytic subunit (Sus scrofa, UniProt P43367); assay: pig calpain II inhibitor potency, dose response, biochemical, fluorogenic peptide substrate (AID 1420); format: functional
# T6 sequence (P43367 whole entry): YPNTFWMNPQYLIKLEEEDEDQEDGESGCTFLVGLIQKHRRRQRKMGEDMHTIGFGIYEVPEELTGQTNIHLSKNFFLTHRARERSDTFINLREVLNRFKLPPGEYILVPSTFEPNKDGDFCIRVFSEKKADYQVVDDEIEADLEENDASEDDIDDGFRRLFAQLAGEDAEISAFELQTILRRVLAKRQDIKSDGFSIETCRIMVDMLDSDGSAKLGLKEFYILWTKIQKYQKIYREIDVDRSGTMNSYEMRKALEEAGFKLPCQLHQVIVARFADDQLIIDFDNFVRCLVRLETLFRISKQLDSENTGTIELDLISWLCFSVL
# [18] = inhibitors of firefly luciferase expression or activity, dose response, H4 neuroglioma cells, luminescence (AID 1990); format: functional, cell-based
# [19] = Luminescence Cell-Based Dose Response HTS to Identify Inhibitors of 5'UTR Stem-Loop Driven Prion Protein mRNA Translation in H4 Neuroglioblastoma Cells. [Related pubchem assays: 1827 (Project Summary), 1813 (Primary HTS)]; format: functional
# [20] = target: Neurotensin receptor type 1 (Homo sapiens, UniProt P30989); format: functional;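 further: Image-based confirmatory dose-response assay measuring agonist activity at NTR1; NTR1-expressing U2OS osteosarcoma cells imaged for beta-arrestin GFP spot formation; agonist potency where compounds increase beta-arrestin recruitment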
# [21] = Luminescence Cell-Based Dose Retest to Confirm Inhibitors of Cancer Stem Cells. [Related pubchem assays (depositor defined):AID2717, AID2721]; format: functional; conditions: Homo sapiens
# [22] = target: DNA damage-inducible transcript 3 protein (Mus musculus, UniProt P35639); format: functional, Cricetulus griseus
# INS1 = assay: beta cell apoptosis inhibitors, cytokine rescue, dose response, luminescence, retest (AID 449756); format: functional, cell-based; conditions: Rattus norvegicus;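 further: cell death triggered by IL-1 beta plus TNF-alpha plus IFN-gamma mixture; protective hits raise ATP signal compared with cytokine alone wells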
# T1 sequence (Q00975 whole entry): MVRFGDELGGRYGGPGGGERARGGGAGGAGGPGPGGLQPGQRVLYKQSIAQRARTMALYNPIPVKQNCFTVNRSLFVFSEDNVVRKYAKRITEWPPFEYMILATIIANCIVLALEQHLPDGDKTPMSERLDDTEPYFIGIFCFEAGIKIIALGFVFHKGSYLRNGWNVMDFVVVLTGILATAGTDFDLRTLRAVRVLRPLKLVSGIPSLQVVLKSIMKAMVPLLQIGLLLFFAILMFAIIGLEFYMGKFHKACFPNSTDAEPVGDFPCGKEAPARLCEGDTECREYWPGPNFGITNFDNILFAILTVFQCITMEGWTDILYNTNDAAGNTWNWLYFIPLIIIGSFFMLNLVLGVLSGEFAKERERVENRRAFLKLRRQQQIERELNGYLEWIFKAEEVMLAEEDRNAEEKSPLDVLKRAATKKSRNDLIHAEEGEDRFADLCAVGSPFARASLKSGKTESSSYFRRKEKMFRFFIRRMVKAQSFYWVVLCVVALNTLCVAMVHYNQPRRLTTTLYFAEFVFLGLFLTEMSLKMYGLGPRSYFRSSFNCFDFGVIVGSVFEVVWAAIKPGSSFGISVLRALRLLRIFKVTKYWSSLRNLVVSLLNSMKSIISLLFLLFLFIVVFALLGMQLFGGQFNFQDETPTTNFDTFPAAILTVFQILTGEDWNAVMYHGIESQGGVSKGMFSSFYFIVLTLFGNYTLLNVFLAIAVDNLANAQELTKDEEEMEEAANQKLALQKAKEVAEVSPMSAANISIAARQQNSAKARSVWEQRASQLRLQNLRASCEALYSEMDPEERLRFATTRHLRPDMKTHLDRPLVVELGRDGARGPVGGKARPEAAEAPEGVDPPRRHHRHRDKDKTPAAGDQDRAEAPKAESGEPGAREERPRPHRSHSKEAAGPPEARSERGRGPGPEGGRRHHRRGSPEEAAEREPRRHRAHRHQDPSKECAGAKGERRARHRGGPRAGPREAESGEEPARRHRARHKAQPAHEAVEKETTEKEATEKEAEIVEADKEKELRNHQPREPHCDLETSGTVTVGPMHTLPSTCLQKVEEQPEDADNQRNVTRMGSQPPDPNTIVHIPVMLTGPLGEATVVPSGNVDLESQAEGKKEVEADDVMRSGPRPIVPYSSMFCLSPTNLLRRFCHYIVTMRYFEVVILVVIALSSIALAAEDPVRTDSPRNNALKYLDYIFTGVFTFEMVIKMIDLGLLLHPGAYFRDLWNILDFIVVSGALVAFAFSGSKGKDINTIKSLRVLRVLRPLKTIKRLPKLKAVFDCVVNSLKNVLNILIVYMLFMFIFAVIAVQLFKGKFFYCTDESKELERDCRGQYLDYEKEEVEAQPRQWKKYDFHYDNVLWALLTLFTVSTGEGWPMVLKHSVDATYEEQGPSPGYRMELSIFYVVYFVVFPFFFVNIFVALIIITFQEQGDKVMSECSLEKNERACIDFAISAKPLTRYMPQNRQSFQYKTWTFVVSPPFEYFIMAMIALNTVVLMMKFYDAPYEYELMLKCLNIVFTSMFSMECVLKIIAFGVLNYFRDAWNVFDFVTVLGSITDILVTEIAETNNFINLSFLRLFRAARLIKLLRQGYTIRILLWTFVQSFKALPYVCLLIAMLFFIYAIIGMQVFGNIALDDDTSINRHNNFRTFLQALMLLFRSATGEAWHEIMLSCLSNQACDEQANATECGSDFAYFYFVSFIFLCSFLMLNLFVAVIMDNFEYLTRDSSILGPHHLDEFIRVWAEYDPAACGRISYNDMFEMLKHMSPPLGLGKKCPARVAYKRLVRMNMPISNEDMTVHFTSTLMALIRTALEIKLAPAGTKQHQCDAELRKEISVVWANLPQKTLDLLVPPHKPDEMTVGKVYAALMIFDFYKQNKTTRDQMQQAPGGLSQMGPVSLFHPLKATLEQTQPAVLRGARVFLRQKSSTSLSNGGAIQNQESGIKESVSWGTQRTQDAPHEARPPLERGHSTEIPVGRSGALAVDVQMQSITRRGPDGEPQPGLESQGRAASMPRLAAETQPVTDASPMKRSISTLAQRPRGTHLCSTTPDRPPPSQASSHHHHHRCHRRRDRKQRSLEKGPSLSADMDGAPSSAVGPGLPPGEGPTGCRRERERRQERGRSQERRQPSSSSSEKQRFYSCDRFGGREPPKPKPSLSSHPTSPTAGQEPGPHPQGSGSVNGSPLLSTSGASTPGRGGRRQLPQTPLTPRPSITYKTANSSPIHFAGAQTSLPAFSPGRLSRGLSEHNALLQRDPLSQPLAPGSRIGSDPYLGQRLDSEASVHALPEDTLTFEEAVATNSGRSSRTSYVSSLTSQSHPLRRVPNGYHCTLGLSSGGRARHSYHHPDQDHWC
# T1 sequence (Q02410 whole entry): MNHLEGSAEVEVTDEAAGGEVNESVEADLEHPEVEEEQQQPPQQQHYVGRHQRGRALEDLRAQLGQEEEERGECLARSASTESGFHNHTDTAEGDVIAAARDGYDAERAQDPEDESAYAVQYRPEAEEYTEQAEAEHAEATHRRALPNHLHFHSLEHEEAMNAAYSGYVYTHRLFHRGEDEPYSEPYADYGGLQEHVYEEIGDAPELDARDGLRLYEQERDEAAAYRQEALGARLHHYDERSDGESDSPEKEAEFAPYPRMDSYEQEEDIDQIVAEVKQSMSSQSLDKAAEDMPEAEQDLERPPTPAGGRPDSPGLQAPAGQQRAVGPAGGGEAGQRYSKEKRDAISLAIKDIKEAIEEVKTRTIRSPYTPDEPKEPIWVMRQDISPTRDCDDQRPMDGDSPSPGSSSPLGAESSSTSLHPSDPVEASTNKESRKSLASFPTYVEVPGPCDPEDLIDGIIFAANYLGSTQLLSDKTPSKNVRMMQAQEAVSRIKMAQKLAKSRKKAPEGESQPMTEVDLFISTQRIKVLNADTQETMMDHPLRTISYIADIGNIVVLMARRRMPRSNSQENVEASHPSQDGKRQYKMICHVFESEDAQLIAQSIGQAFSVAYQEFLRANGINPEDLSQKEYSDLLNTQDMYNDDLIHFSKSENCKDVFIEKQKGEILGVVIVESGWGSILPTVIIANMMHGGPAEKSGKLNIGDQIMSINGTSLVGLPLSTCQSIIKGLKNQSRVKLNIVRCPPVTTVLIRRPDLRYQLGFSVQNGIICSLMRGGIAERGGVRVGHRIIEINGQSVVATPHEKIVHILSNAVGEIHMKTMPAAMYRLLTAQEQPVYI
# Chain of Tyrosine-protein phosphatase non-receptor type 11 (Q06124 whole entry): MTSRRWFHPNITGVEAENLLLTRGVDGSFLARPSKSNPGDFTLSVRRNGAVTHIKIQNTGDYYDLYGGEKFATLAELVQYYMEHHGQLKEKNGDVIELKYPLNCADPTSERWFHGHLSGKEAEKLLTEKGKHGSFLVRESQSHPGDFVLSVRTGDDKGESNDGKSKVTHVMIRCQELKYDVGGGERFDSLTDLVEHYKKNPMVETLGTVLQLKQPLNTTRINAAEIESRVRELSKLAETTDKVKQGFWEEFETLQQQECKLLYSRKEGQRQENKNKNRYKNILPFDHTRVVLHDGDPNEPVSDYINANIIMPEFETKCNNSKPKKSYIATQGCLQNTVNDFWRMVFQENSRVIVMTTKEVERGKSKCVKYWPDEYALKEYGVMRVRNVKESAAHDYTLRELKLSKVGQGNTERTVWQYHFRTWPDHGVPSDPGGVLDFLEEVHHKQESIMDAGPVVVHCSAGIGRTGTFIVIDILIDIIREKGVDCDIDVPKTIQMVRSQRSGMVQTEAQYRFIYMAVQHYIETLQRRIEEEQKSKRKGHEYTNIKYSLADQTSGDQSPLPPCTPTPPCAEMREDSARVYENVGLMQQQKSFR
# Chain of Eukaryotic translation initiation factor 4E (P63073 whole entry): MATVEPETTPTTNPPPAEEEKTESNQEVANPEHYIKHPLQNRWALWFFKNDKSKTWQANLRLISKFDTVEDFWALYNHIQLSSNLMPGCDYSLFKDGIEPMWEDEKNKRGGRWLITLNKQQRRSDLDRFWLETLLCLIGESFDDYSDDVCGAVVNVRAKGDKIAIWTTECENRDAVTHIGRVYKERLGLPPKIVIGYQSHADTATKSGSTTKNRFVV
# Chain of Luciferin 4-monooxygenase (P08659 whole entry): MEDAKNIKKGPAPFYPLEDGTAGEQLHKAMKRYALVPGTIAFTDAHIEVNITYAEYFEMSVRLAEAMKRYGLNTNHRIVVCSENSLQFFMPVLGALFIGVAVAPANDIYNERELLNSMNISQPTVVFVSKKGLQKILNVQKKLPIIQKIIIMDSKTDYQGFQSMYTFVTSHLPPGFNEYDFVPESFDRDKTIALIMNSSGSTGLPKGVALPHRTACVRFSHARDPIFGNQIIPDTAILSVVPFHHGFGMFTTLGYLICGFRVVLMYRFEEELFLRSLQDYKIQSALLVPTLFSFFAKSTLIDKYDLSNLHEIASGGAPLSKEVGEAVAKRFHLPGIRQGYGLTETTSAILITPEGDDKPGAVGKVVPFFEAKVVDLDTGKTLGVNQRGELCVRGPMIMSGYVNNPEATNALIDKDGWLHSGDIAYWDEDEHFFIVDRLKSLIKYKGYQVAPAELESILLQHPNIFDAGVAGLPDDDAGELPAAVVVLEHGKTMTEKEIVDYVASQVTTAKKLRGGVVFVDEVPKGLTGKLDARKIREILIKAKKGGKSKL
# Chain of Tumor necrosis factor (P01375 whole entry): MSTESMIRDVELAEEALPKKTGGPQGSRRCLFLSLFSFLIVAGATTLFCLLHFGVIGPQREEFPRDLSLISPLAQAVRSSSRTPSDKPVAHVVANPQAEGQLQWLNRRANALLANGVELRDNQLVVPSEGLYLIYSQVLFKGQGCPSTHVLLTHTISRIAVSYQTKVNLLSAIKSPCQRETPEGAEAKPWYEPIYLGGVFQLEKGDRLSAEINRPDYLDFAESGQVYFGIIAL
# Chain of DNA damage-inducible transcript 3 protein (P35639 whole entry): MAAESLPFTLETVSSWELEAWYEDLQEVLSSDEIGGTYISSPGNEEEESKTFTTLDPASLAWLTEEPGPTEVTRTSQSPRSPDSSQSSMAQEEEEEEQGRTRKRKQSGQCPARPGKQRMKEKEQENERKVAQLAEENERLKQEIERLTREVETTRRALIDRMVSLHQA
smiles,measurement,setting,value
O=C(c1cc(-c2ccco2)nc2ccccc12)N1CCC(c2ccccc2)C1 (stereo unspecified),IC50,[1],13.6 µM (active)
same,IC50,[2],> 56.8 µM (inactive)
N=C(NCc1ccc2c(c1)OCO2)NC(=O)c1ccccc1,AC50,[3],6.74 µM (active)
same,IC50,[4],17.3 µM (active)
same,IC50,[5],19 µM (active)
same,AC50,[6],17.2 µM (active)
same,IC50,[7],24.1 µM (inactive)
same,IC50,Hexokinase HKDC1,25.8 µM (inactive)
same,IC50,[8],> 80 µM (inactive)
CC(C)(C)c1ccc(C(=O)ON=C(N)c2ccccc2)cc1,IC50,[9],2.84 µM (active)
same,EC50,[10],5.63 µM (active)
same,IC50,Tumor necrosis factor,1.51 µM (active)
same,EC50,[11],< 0.16 µM (active)
CCCCCCCCCn1c2c(c(=N)c3c1CCC3)CCCC2,EC50,[12],60.2 µM (active)
same,EC50,[13],< 0.1 µM (active)
same,EC50,[14],3.52 µM (active)
same,EC50,[15],3.44 µM (active)
same,EC50,cells,0.011 µM (active)
same,IC50,[16],42.1 µM (inactive)
same,IC50,[17],4.68 µM (active)
same,EC50,[18],6.69 µM (active)
same,EC50,[19],6.11 µM (active)
same,EC50,[20],6.65 µM (active)
COc1ccc(-c2nn(-c3ccccc3)cc2/C=N/N2C(=O)CSC2=S)cc1,AC50,[21],2.08 µM (active)
same,Absolute IC50 (CHOP),[22],10 µM
same,AC50,INS1,4.38 µM (active)
